Biological target: T1, full-length ATR (Homo sapiens, UniProt Q13535)
T1 construct: Assays were carried out at 25° C. in the presence of 5 nM full-length ATR
Experiment: ATR Inhibition Assay (radioactive-phosphate incorporation)
Type: biochemical
Conditions: Ki(app); 5 nM full-length ATR, 10 μM [γ-33P]ATP, 800 μM target peptide, 25° C.
Experimental: Compounds were screened for their ability to inhibit ATR kinase using a radioactive-phosphate incorporation assay. Assays were carried out in a mixture of 50 mM Tris/HCl (pH 7.5), 10 mM MgCl2 and 1 mM DTT. Final substrate concentrations were 10 μM [γ-33P]ATP (3mCi 33P ATP/mmol ATP, Perkin Elmer) and 800 μM target peptide (ASELPASQPQPFSAKKK).
Assays were carried out at 25° C. in the presence of 5 nM full-length ATR. An assay stock buffer solution was prepared containing all of the reagents listed above, with the exception of ATP and the test compound of interest. 13.5 μL of the stock solution was placed in a 96 well plate followed by addition of 2 μL of DMSO stock containing serial dilutions of the test compound (typically starting from a final concentration of 15 μM with 3-fold serial dilutions) in duplicate (final DMSO concentration 7%). The plate was pre-incubated for 10 minutes at 25° C. and the reaction initiated by addition of 15 μL [γ-33P]ATP (final concentration 10 μM).
The reaction was stopped after […] by the addition of 30 μL 0.1M phosphoric acid containing 2 mM ATP. A multiscreen phosphocellulose filter 96-well plate (Millipore, Cat no. MAPHN0B50) was pretreated with 100 μL 0.2M phosphoric acid prior to the addition of 45 μL of the stopped assay mixture. The plate was washed with 5×200 μL 0.2M phosphoric acid. After drying, 100 μL Optiphase ‘SuperMix’ liquid scintillation cocktail (Perkin Elmer) was added to the well prior to scintillation counting (1450 Microbeta Liquid Scintillation Counter, Wallac).
After removing mean background values for all of the data points, Ki(app) data were calculated from non-linear regression analysis of the initial rate data using the Prism software package (GraphPad Prism version 3.0cx for Macintosh, GraphPad Software, San Diego Calif., USA).

T1 sequence (Q13535 whole entry): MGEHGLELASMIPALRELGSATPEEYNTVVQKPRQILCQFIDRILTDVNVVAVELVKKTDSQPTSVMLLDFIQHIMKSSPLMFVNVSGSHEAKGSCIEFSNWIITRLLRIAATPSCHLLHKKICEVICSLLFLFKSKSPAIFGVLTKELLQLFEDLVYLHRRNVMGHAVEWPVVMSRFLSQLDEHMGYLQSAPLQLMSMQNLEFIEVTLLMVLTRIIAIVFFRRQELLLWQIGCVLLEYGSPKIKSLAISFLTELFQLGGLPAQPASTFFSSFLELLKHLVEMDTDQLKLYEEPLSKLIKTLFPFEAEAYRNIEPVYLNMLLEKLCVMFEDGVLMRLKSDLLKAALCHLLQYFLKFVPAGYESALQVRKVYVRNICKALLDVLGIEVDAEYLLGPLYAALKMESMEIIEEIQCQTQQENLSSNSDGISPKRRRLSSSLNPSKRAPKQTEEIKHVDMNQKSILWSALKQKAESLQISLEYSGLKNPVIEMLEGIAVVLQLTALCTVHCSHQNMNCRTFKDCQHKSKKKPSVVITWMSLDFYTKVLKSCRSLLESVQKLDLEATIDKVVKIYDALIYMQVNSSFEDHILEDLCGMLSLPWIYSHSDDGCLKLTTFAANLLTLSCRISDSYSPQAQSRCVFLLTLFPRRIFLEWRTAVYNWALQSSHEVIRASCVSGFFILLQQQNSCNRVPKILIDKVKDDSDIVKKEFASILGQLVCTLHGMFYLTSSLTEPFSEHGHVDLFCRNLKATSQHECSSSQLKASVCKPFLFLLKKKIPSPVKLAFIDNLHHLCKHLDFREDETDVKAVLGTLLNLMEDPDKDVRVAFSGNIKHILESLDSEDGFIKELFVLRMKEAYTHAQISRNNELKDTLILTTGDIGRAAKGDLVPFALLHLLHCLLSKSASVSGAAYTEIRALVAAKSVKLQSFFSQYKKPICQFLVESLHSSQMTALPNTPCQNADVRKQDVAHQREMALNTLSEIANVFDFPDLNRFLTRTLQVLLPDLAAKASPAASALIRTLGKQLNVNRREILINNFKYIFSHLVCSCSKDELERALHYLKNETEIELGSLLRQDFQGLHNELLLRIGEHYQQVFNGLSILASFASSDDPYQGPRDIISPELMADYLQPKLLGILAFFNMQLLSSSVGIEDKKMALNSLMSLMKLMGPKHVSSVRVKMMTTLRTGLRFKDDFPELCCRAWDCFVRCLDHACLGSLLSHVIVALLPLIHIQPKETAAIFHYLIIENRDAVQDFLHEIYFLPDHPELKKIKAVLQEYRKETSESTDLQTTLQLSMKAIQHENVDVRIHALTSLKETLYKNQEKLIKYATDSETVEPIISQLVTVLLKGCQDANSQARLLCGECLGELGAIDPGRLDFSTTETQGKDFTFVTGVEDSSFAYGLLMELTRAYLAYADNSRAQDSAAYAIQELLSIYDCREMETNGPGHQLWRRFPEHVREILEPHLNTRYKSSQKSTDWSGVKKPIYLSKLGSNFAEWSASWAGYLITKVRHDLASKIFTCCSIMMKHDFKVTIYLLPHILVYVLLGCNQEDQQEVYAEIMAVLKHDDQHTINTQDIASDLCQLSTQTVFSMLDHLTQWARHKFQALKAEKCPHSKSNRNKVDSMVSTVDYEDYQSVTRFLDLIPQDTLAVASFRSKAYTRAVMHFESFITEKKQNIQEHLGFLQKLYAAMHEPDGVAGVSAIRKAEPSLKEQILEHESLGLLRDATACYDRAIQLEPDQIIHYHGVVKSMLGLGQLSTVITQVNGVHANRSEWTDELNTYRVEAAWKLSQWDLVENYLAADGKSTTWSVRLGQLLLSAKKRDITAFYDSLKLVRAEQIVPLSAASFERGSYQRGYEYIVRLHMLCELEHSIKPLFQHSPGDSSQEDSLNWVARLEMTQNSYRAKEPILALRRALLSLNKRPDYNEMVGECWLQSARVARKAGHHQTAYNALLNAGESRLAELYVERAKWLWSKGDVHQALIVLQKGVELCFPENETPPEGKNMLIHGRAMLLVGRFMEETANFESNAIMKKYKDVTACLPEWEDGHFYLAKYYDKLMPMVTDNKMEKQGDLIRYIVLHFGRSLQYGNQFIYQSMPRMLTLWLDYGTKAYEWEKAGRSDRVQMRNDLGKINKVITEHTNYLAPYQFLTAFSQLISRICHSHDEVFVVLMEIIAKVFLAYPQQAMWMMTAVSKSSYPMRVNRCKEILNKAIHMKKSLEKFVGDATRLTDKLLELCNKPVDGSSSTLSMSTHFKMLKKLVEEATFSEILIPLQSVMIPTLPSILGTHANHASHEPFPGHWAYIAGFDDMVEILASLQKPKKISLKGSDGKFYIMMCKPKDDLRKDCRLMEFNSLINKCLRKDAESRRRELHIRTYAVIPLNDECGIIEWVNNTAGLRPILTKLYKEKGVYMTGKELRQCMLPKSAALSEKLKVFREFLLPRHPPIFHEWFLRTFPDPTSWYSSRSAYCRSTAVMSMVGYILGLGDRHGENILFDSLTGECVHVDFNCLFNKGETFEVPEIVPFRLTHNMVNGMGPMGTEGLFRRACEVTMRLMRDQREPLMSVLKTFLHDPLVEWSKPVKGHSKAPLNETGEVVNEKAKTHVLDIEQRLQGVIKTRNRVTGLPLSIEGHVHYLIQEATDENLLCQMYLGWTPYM

Ki	ATR Inhibition Ki	SMILES
≤ 0.01 µM		CC(C)S(=O)(=O)c1ccc(-c2cnc3[nH]cc(NC(=O)c4ccccc4)c3n2)cc1 [Compound I-1, N-(2-(4-(isopropylsulfonyl)phenyl)-5H-pyrrolo[2,3-b]pyrazin-7-yl)benzamide]
≤ 0.01 µM		CC(C)S(=O)(=O)c1ccc(-c2cnc3[nH]cc(NC(=O)c4cccc(N)c4)c3n2)cc1 [Compound I-2, 3-amino-N-[2-(4-isopropylsulfonylphenyl)-5H-pyrrolo[2,3-b]pyrazin-7-yl]benzamide]
0.01 to 0.1 µM		CC(C)S(=O)(=O)c1ccc(-c2cnc3[nH]cc(NC(=O)c4ccc(N)cc4)c3n2)cc1 [Compound I-3, 4-amino-N-[2-(4-isopropylsulfonylphenyl)-5H-pyrrolo[2,3-b]pyrazin-7-yl]benzamide]
≤ 0.01 µM		CNCc1ccc(C(=O)Nc2c[nH]c3ncc(-c4ccc(S(=O)(=O)C(C)C)cc4)nc23)cc1 [Compound I-4, N-[2-(4-isopropylsulfonylphenyl)-5H-pyrrolo[2,3-b]pyrazin-7-yl]-4-(methylaminomethyl)benzamide]
≤ 0.01 µM		CC(C)S(=O)(=O)c1ccc(-c2cnc3[nH]cc(NC(=O)c4ccc(CN[C@H]5CCOC5)cc4)c3n2)cc1 [Compound I-5, N-[2-(4-isopropylsulfonylphenyl)-5H-pyrrolo[2,3-b]pyrazin-7-yl]-4-[[[(3S)-tetrahydrofuran-3-yl]amino]methyl]benzamide]
≤ 0.01 µM		CNCc1cccc(C(=O)Nc2c[nH]c3ncc(-c4ccc(S(=O)(=O)C(C)C)cc4)nc23)c1 [Compound I-6, N-[2-(4-isopropylsulfonylphenyl)-5H-pyrrolo[2,3-b]pyrazin-7-yl]-3-(methylaminomethyl)benzamide]
0.1 to 0.5 µM		CC(C)S(=O)(=O)c1ccc(-c2cnc3[nH]cc(NC(=O)c4cccc(C(=O)O)c4)c3n2)cc1 [Compound I-7, 3-[[2-(4-isopropylsulfonylphenyl)-5H-pyrrolo[2,3-b]pyrazin-7-yl]carbamoyl]benzoic acid]
≤ 0.01 µM		CC(CCO)S(=O)(=O)c1ccc(-c2cnc3[nH]cc(NC(=O)c4ccccc4)c3n2)cc1 (stereo not drawn) [Compound I-8]
0.1 to 0.5 µM		CC(C)C(=O)Nc1c[nH]c2ncc(-c3ccc(S(=O)(=O)C(C)C)cc3)nc12 [Compound I-9, N-(2-(4-(isopropylsulfonyl)phenyl)-5H-pyrrolo[2,3-b]pyrazin-7-yl)isobutyramide]
0.1 to 0.5 µM		CC(C)S(=O)(=O)c1ccc(-c2cnc3[nH]cc(NC(=O)Cc4ccccc4)c3n2)cc1 [Compound I-10, N-[2-(4-isopropylsulfonylphenyl)-5H-pyrrolo[2,3-b]pyrazin-7-yl]-2-phenyl-acetamide]
	none	COc1ccccc1C(=O)Nc1c[nH]c2ncc(-c3ccc(S(=O)(=O)C(C)C)cc3)nc12 [Compound I-11, N-[2-(4-isopropylsulfonylphenyl)-5H-pyrrolo[2,3-b]pyrazin-7-yl]-2-methoxy-benzamide]
0.01 to 0.1 µM		CC(C)S(=O)(=O)c1ccc(-c2cnc3[nH]cc(NC(=O)c4cccc(CN)c4)c3n2)cc1 [Compound I-12, 3-(aminomethyl)-N-[2-(4-isopropylsulfonylphenyl)-5H-pyrrolo[2,3-b]pyrazin-7-yl]benzamide]
0.01 to 0.1 µM		CC(C)S(=O)(=O)c1ccc(-c2cnc3[nH]cc(NC(=O)c4cccc(Cl)c4)c3n2)cc1 [Compound I-13]
≤ 0.01 µM		CC(C)S(=O)(=O)c1ccc(-c2cnc3[nH]cc(NC(=O)c4ccccc4O)c3n2)cc1 [Compound I-14, 2-hydroxy-N-(2-(4-(isopropylsulfonyl)phenyl)-5H-pyrrolo[2,3-b]pyrazin-7-yl)benzamide]
0.01 to 0.1 µM		CC(C)S(=O)(=O)c1ccc(-c2cnc3[nH]cc(NC(=O)c4ccccc4F)c3n2)cc1 [Compound I-15, 2-fluoro-N-[2-(4-isopropylsulfonylphenyl)-5H-pyrrolo[2,3-b]pyrazin-7-yl]benzamide]
0.01 to 0.1 µM		CC(C)S(=O)(=O)c1ccc(-c2cnc3[nH]cc(NC(=O)c4ccc(Cl)cc4)c3n2)cc1 [Compound I-16, 4-chloro-N-[2-(4-isopropylsulfonylphenyl)-5H-pyrrolo[2,3-b]pyrazin-7-yl]benzamide]
0.01 to 0.1 µM		CC(C)S(=O)(=O)c1ccc(-c2cnc3[nH]cc(NC(=O)c4ccncc4)c3n2)cc1 [Compound I-17, N-[2-(4-isopropylsulfonylphenyl)-5H-pyrrolo[2,3-b]pyrazin-7-yl]pyridine-4-carboxamide]

Ki	ATR Inhibition Ki	SMILES
≤ 0.01 µM		CC(C)S(=O)(=O)c1ccc(-c2cnc3[nH]cc(NC(=O)c4ccc(O)cc4)c3n2)cc1 [Compound I-18, 4-hydroxy-N-[2-(4-isopropylsulfonylphenyl)-5H-pyrrolo[2,3-b]pyrazin-7-yl]benzamide]
0.1 to 0.5 µM		CC(C)S(=O)(=O)c1ccc(-c2cnc3[nH]cc(NS(=O)(=O)c4ccccc4)c3n2)cc1 [Compound I-19]
0.01 to 0.1 µM		CC(C)S(=O)(=O)c1ccc(-c2cnc3[nH]cc(NC(=O)c4ccc(N5CCC(N)CC5)cc4)c3n2)cc1 [Compound I-20, 4-(4-amino-1-piperidyl)-N-[2-(4-isopropylsulfonylphenyl)-5H-pyrrolo[2,3-b]pyrazin-7-yl]benzamide]
0.01 to 0.1 µM		CC(C)S(=O)(=O)c1ccc(-c2cnc3[nH]cc(NC(=O)c4cccc(C5CNCCN5)c4)c3n2)cc1 (stereo not drawn) [Compound I-21, N-[2-(4-isopropylsulfonylphenyl)-5H-pyrrolo[2,3-b]pyrazin-7-yl]-3-piperazin-2-yl-benzamide]
≤ 0.01 µM		CC(C)S(=O)(=O)c1ccc(-c2cnc3[nH]cc(NC(=O)c4ccc(N5CC[C@H](N)C5)cc4)c3n2)cc1 [Compound I-22, 4-[(3S)-3-aminopyrrolidin-1-yl]-N-[2-(4-isopropylsulfonylphenyl)-5H-pyrrolo[2,3-b]pyrazin-7-yl]benzamide]
≤ 0.01 µM		CC(C)S(=O)(=O)c1ccc(-c2cnc3[nH]cc(NC(=O)c4ccc(N5CCC[C@@H](N)C5)cc4)c3n2)cc1 [Compound I-23, 4-[(3R)-3-amino-1-piperidyl]-N-[2-(4-isopropylsulfonylphenyl)-5H-pyrrolo[2,3-b]pyrazin-7-yl]benzamide]
≤ 0.01 µM		CC(C)S(=O)(=O)c1ccc(-c2cnc3[nH]cc(NC(=O)c4ccc5c(c4)CNC5)c3n2)cc1 [Compound I-24, N-[2-(4-isopropylsulfonylphenyl)-5H-pyrrolo[2,3-b]pyrazin-7-yl]isoindoline-5-carboxamide]
≤ 0.01 µM		CC(C)S(=O)(=O)c1ccc(-c2cnc3[nH]cc(NC(=O)c4ccc5c(c4)CNCC5)c3n2)cc1 [Compound I-25, N-[2-(4-isopropylsulfonylphenyl)-5H-pyrrolo[2,3-b]pyrazin-7-yl]-1,2,3,4-tetrahydroisoquinoline-7-carboxamide]
≤ 0.01 µM		CC(C)S(=O)(=O)c1ccc(-c2cnc3[nH]cc(NC(=O)c4cc5c(s4)CCNC5)c3n2)cc1 [Compound I-26, N-[2-(4-isopropylsulfonylphenyl)-5H-pyrrolo[2,3-b]pyrazin-7-yl]-4,5,6,7-tetrahydrothieno[3,2-c]pyridine-2-carboxamide]
≤ 0.01 µM		CC(C)S(=O)(=O)c1ccc(-c2cnc3[nH]cc(NC(=O)c4cc5c(s4)CNCC5)c3n2)cc1 [Compound I-27, N-[2-(4-isopropylsulfonylphenyl)-5H-pyrrolo[2,3-b]pyrazin-7-yl]-4,5,6,7-tetrahydrothieno[2,3-c]pyridine-2-carboxamide]
≤ 0.01 µM		CC(C)S(=O)(=O)c1ccc(-c2cnc3[nH]cc(NC(=O)c4ccc(C5CCCN5)cc4)c3n2)cc1 (stereo not drawn) [Compound I-28, N-[2-(4-isopropylsulfonylphenyl)-5H-pyrrolo[2,3-b]pyrazin-7-yl]-4-pyrrolidin-2-yl-benzamide]
≤ 0.01 µM		CC(C)S(=O)(=O)c1ccc(-c2cnc3[nH]cc(NC(=O)c4ccc(OCCN(C)C)cc4)c3n2)cc1 [Compound I-29, 4-(2-dimethylaminoethyloxy)-N-[2-(4-isopropylsulfonylphenyl)-5H-pyrrolo[2,3-b]pyrazin-7-yl]benzamide]
≤ 0.01 µM		CC(C)S(=O)(=O)c1ccc(-c2cnc3[nH]cc(NC(=O)c4ccc(NC5CNC5)cc4)c3n2)cc1 [Compound I-30, 4-(azetidin-3-ylamino)-N-[2-(4-isopropylsulfonylphenyl)-5H-pyrrolo[2,3-b]pyrazin-7-yl]benzamide]
0.01 to 0.1 µM		COc1cccc(C(=O)Nc2c[nH]c3ncc(-c4ccc(S(=O)(=O)C(C)C)cc4)nc23)n1 [Compound I-31, N-[2-(4-isopropylsulfonylphenyl)-5H-pyrrolo[2,3-b]pyrazin-7-yl]-6-methoxy-pyridine-2-carboxamide]
≤ 0.01 µM		Cc1ccsc1C(=O)Nc1c[nH]c2ncc(-c3ccc(S(=O)(=O)C(C)C)cc3)nc12 [Compound I-32, N-[2-(4-isopropylsulfonylphenyl)-5H-pyrrolo[2,3-b]pyrazin-7-yl]-3-methyl-thiophene-2-carboxamide]
0.01 to 0.1 µM		CC(C)S(=O)(=O)c1ccc(-c2cnc3[nH]cc(NC(=O)CC4CC4)c3n2)cc1 [Compound I-33, 2-cyclopropyl-N-[2-(4-isopropylsulfonylphenyl)-5H-pyrrolo[2,3-b]pyrazin-7-yl]acetamide]
